# Columns and labels:
# Test in all cases: KINOMEscan competition binding
# Conditions in all cases: compound 10.0 µM
# [1] = target: SGK1 (human) (UniProt O00141)
# [2] = tested on: ALK (human), Q9UM73 [L1196M]
# [3] = tested on: ALK (human), Q9UM73 [C1156Y]
# [4] = target: NEK10 (human) (UniProt Q6ZWH5)
# NEK10 (human), sequence (Q6ZWH5 whole entry, looked up): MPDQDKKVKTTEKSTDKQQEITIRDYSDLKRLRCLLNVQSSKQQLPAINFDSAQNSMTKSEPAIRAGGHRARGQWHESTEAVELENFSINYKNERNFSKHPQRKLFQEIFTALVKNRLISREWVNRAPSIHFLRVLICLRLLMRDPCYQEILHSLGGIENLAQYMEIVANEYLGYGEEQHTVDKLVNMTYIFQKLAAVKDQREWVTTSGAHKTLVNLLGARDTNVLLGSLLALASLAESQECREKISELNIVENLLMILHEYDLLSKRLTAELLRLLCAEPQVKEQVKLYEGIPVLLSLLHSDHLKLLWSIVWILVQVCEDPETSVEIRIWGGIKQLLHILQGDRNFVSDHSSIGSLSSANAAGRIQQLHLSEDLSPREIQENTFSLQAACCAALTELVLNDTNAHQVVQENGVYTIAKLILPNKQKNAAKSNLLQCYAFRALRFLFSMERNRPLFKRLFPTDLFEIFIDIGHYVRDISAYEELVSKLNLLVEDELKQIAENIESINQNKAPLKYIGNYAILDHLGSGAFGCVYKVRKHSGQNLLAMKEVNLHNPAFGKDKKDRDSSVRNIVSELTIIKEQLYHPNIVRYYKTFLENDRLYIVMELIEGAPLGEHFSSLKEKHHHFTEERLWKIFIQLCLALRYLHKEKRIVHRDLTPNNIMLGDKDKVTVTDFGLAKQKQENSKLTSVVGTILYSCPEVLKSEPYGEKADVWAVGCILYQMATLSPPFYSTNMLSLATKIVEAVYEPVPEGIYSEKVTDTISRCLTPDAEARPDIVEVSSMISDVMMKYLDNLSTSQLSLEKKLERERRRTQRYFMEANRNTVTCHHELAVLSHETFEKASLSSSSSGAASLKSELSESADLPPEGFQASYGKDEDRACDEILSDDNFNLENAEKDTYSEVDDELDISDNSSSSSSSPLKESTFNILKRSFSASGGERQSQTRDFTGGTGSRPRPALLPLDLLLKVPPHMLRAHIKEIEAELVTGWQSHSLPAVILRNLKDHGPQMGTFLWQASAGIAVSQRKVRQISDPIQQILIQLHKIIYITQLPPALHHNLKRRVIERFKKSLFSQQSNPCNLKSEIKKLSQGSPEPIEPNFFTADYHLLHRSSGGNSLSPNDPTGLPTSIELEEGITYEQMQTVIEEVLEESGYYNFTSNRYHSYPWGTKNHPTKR
# SGK1 (human), sequence (O00141 whole entry, looked up): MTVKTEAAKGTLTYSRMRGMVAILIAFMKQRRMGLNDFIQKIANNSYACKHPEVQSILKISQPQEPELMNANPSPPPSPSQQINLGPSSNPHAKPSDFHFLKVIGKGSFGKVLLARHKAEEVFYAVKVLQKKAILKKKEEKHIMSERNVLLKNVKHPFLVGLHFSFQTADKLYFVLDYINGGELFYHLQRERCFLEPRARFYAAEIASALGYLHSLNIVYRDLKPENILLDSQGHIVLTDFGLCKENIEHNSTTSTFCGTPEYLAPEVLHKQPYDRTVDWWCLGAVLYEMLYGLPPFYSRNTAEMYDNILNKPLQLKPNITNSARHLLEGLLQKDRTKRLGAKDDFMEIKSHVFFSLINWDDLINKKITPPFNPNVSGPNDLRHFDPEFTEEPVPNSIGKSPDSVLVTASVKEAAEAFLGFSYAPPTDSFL
# ALK (human), Q9UM73 [C1156Y], sequence (Q9UM73 whole entry C1156Y, looked up): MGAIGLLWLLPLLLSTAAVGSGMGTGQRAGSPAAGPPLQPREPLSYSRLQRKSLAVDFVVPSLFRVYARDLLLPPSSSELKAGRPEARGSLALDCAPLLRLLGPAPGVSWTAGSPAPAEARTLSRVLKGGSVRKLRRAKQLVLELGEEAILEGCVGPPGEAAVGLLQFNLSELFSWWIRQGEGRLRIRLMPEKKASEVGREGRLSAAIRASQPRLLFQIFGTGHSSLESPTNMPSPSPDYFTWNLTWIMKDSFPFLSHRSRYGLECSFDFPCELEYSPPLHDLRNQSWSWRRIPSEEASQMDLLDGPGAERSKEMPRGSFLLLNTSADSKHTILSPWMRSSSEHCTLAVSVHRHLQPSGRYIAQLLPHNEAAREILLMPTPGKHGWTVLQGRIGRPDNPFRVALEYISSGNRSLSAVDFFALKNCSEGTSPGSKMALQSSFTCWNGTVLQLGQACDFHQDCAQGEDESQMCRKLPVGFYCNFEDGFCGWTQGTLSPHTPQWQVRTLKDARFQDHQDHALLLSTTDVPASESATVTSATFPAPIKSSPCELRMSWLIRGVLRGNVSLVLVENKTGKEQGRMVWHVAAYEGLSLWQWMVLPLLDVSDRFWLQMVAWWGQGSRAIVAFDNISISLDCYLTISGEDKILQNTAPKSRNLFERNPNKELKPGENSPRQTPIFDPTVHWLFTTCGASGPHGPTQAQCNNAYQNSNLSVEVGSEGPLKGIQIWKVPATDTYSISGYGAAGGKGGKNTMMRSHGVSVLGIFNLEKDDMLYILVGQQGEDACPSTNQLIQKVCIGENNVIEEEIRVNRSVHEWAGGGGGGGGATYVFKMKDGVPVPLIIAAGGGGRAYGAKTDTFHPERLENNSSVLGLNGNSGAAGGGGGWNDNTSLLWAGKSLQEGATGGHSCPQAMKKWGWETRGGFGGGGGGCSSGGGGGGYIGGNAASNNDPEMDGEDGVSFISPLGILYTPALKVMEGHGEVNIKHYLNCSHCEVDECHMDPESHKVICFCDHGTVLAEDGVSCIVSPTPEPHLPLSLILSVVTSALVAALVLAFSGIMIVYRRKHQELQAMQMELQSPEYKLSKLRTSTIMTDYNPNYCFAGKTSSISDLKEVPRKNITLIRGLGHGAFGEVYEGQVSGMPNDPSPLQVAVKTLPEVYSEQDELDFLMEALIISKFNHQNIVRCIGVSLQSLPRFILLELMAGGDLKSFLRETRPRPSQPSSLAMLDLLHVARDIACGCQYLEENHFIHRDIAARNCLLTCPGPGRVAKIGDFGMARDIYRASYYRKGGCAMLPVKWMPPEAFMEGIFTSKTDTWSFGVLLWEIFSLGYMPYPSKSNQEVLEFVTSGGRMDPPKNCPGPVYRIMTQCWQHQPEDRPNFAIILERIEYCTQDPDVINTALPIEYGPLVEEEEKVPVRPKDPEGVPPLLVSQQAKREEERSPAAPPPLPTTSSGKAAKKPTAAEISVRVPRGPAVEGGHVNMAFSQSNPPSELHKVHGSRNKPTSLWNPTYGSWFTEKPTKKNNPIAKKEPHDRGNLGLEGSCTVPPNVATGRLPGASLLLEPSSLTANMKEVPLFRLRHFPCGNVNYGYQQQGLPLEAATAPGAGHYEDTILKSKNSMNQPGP
# ALK (human), Q9UM73 [L1196M], sequence (Q9UM73 whole entry L1196M, looked up): as the sequence (Q9UM73 whole entry C1156Y, looked up) above, with Y1156C, L1196M counted along it
SMILES,"kinase still bound, per cent of control [1]","kinase still bound, per cent of control [2]","kinase still bound, per cent of control [3]","kinase still bound, per cent of control [4]"
N#CCNC(=O)c1ccc(-c2ccnc(Nc3ccc(N4CCOCC4)cc3)n2)cc1,2.8%,,,
O=C1NC(=O)/C(=C/c2ccc3nccc(-c4ccncc4)c3c2)S1,43%,45%,42%,0%
